Assay results: patent publication US20180273538A1, “PYRROLO[2,3-d]PYRIMIDINE DERIVATIVES, A PROCESS FOR THEIR PREPARATION AND PHARMACEUTICAL COMPOSITIONS CONTAINING THEM” (LES LABORATOIRES SERVIER, priority 2015, published 2018)

Columns and labels:
[1] = target: T1, DYRK1A (Homo sapiens, UniProt Q13627); test: Kinase TR-FRET assay, DYRK1A; type: biochemical
T1 construct: full-length human kinases from Carna Biosciences; purchased Carna Biosciences 04-130

[2] = target: T2, DYRK1B (Homo sapiens, UniProt Q9Y463); test: Kinase TR-FRET assay, DYRK1B; type: biochemical
T2 construct: full-length human kinases from Carna Biosciences; purchased Carna Biosciences 04-131
T2 sequence (Q9Y463 whole entry): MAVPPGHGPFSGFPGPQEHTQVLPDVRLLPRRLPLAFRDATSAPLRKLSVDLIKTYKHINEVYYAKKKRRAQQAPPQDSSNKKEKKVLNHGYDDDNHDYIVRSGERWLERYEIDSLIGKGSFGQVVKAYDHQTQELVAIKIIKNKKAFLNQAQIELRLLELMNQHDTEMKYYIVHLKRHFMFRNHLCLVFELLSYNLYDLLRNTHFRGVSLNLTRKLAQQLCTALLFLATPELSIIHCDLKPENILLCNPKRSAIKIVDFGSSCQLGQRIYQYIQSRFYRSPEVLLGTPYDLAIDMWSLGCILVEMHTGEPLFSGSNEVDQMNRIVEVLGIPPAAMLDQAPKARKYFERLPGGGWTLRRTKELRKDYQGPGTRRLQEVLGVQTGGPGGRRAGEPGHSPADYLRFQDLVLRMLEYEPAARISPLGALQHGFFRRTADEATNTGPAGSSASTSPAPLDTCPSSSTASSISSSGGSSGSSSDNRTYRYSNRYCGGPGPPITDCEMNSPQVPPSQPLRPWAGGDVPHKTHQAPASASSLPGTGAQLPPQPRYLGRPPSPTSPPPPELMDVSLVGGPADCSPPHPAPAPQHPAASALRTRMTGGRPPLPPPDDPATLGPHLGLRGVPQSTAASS

[3] = target: T3, His-TEV-DYRK1A Kinase domain (aa127-485) (Homo sapiens, UniProt Q13627); test: Kinase ADP assay (ADP Hunter Plus); type: biochemical
T3 construct: His-TEV-DYRK1A Kinase domain (aa127-485); His (N); TEV cleavage site (N)

[4] = target: T4, phospho-Ser520-DYRK1A (Homo sapiens, UniProt Q13627); test: Cellular DYRK1A autophosphorylation assay in U2-OS cells; type: cell-based; conditions: 5 hours exposure, read-out: IC50 (μM) P-Ser520-Dyrk1A-Cell assay
T4 construct: full-length, wild-type human DYRK1A (NM_001396) with an HA tag; expressed in transfected cells; host or cells: human U2-OS osteosarcoma cells, pcDNA3.1 plasmid

Row | IC50 [1] [µM] | IC50 [2] [µM] | IC50 [3] [µM] | IC50 [4] [µM] | SMILES
1 | 0.0355 | 0.0143 | 0.032 |  | Cc1nc(OCC2CCCC2)c2c(-c3ccncc3)c[nH]c2n1 [Example 15, 4-(cyclopentylmethoxy)-2-methyl-5-(pyridin-4-yl)-7H-pyrrolo[2,3-d]pyrimidine]
2 | 0.0059 |  | 0.038 |  | Cc1nc(NCc2cc(F)cc(F)c2F)c2c(-c3ccnc(N)c3)c[nH]c2n1 [Example 73, 5-(2-aminopyridin-4-yl)-2-methyl-N-(2,3,5-trifluorobenzyl)-7H-pyrrolo[2,3-d]pyrimidin-4-amine]
3 | 0.0709 |  | 0.069 | 0.898 | Cc1nc(NCC2CC2)c2c(-c3ccnc(N)c3)c[nH]c2n1 [Example 65, 5-(2-aminopyridin-4-yl)-N-(cyclopropymethyl)-2-methyl-7H-pyrrolo[2,3-d]pyrimidin-4-amine]
4 | 0.0197 |  | 0.013 |  | Cc1nc(OC(C)c2ccccc2)c2c(-c3ccnc(N)c3)c[nH]c2n1 (centres unmarked) [Example 20, 4-[2-methyl-4-(1-phenylethoxy)-7H-pyrrolo[2,3-d]pyrimidin-5-yl]pyridin-2-amine]
5 | 0.0029 |  | 0.013 | 0.126 | Cc1nc(NCc2ccccc2F)c2c(-c3ccnc(N)c3)c[nH]c2n1 [Example 51, 5-(2-aminopyridin-4-yl)-N-(2-fluorobenzyl)-2-methyl-7H-pyrrolo[2,3-d]pyrimidin-4-amine]
6 | 0.021 |  | 0.013 |  | Cc1nc(NCc2ccc3cc[nH]c3c2)c2c(-c3ccnc(N)c3)c[nH]c2n1 [Example 72, 5-(2-aminopyridin-4-yl)-N-(1H-indol-6-ylmethyl)-2-methyl-7H-pyrrolo[2,3-d]pyrimidin-4-amine]
7 | 0.0492 |  | 0.077 |  | Cc1nc(NCc2ccccc2OC(F)(F)F)c2c(-c3ccnc(N)c3)c[nH]c2n1 [Example 89, 5-(2-aminopyridin-4-yl)-2-methyl-N-[2-(trifluoromethoxy)benzyl]-7H-pyrrolo[2,3-d]pyrimidin-4-amine]
8 | 0.0233 |  | 0.021 | 0.238 | Cc1nc(NCc2ccccn2)c2c(-c3ccnc(N)c3)c[nH]c2n1 [Example 53, 5-(2-aminopyridin-4-yl)-2-methyl-N-(pyridin-2-ylmethyl)-7H-pyrrolo[2,3-d]pyrimidin-4-amine]
9 | 0.0338 |  | 0.122 |  | Cc1nc(Nc2ccc3c(c2)OCO3)c2c(-c3ccnc(N)c3)c[nH]c2n1 [Example 132, 5-(2-aminopyridin-4-yl)-N-(1,3-benzodioxol-5-yl)-2-methyl-7H-pyrrolo[2,3-d]pyrimidin-4-amine]
10 | 0.001 | 0.0199 | 0.045 |  | Cc1nc(NC(C)c2c(F)cccc2F)c2c(-c3ccnc(N)c3)c[nH]c2n1 (centres unmarked) [Example 82, 5-(2-aminopyridin-4-yl)-N-[1-(2,6-difluorophenyl)ethyl]-2-methyl-7H-pyrrolo[2,3-d]pyrimidin-4-amine]
11 |  |  | 0.006 | 0.0097 | COc1cc(F)ccc1CNc1nc(C)nc2[nH]cc(-c3ccnc(N)c3)c12 [Example 84, 5-(2-aminopyridin-4-yl)-N-(4-fluoro-2-methoxybenzyl)-2-methyl-7H-pyrrolo[2,3-d]pyrimidin-4-amine]
12 |  |  | 0.012 | 0.0101 | Nc1cc(-c2c[nH]c3nc(C#CC4CC4)nc(NCc4c(F)cccc4F)c23)ccn1 [Example 152, 5-(2-aminopyridin-4-yl)-2-(cyclopropylethynyl)-N-(2,6-difluorobenzyl)-7H-pyrrolo[2,3-d]pyrimidin-4-amine]
13 |  |  | 0.03 | 0.225 | N#Cc1cc(-c2ccc3c(c2)OCO3)c2c(-c3cc(N)nc(N)c3)c[nH]c2n1 [Example 224, 4-(1,3-benzodioxol-5-yl)-3-(2,6-diaminopyridin-4-yl)-1H-pyrrolo[2,3-b]pyridine-6-carbonitrile]
14 |  |  | 0.042 | 0.471 | COc1cccc(C(F)(F)F)c1CNc1nc(C)nc2[nH]cc(-c3ccncc3)c12 [Example 145, N-[2-methoxy-6-(trifluoromethyl)benzyl]-2-methyl-5-(pyridin-4-yl)-7H-pyrrolo[2,3-d]pyrimidin-4-amine]
15 |  |  | 0.006 | 0.029 | Cc1nc(-c2cc3ccccc3o2)c2c(-c3ccnc(N)c3)c[nH]c2n1 [Example 183]
16 | 0.003 |  | 0.011 | 0.0206 | Cc1nc(NCc2ncccc2C)c2c(-c3ccnc(N)c3)c[nH]c2n1 [Example 60, 5-(2-aminopyridin-4-yl)-2-methyl-N-[(3-methylpyridin-2-yl)methyl]-7H-pyrrolo[2,3-d]pyrimidin-4-amine]
17 | 0.0107 |  | 0.045 |  | Cc1nc(NC(C)c2ccccn2)c2c(-c3ccnc(N)c3)c[nH]c2n1 (centres unmarked) [Example 66, 5-(2-aminopyridin-4-yl)-2-methyl-N-[1-(pyridin-2-yl)ethyl]-7H-pyrrolo[2,3-d]pyrimidin-4-amine]
18 | 0.0979 |  | 0.066 | 0.534 | Cc1nc(NCc2c(C)noc2C)c2c(-c3ccnc(N)c3)c[nH]c2n1 [Example 95, 5-(2-aminopyridin-4-yl)-N-[(3,5-dimethyl-1,2-oxazol-4-yl)methyl]-2-methyl-7H-pyrrolo[2,3-d]pyrimidin-4-amine]

Row | IC50 [1] [µM] | IC50 [2] [µM] | IC50 [3] [µM] | IC50 [4] [µM] | SMILES
19 |  |  | 0.012 | 0.0319 | Cc1ccc2sc(-c3nc(C)nc4[nH]cc(-c5ccnc(N)c5)c34)cc2c1 [Example 184]
20 |  |  | 0.007 | 0.017 | Cc1nc(C#Cc2ccccc2F)c2c(-c3ccnc(N)c3)c[nH]c2n1 [Example 194]
21 |  |  | 0.008 | 0.048 | Cc1nc(-c2ccc3c(c2)OCO3)c2c(-c3cc(N)nc(N)c3)c[nH]c2n1 [Example 192]
22 | 0.043 |  | 0.044 | 0.208 | Cc1nc(NCC2CCCCC2)c2c(-c3ccnc(N)c3)c[nH]c2n1 [Example 48, 5-(2-aminopyridin-4-yl)-N-(cyclohexylmethyl)-2-methyl-7H-pyrrolo[2,3-d]pyrimidin-4-amine]
23 | 0.0129 |  | 0.032 | 0.511 | Cc1nc(NCc2ccc(F)cc2)c2c(-c3ccnc(N)c3)c[nH]c2n1 [Example 54, 5-(2-aminopyridin-4-yl)-N-(4-fluorobenzyl)-2-methyl-7H-pyrrolo[2,3-d]pyrimidin-4-amine]
24 |  |  | 0.012 | 0.0187 | Cc1nc(/C=C/c2ccccc2)c2c(-c3ccnc(N)c3)c[nH]c2n1 [Example 159]
25 |  |  | 0.023 | 0.172 | Cc1nc(C#CC2CC2)c2c(-c3cc(N)nc(N)c3)c[nH]c2n1 [Example 196]
26 |  |  | 0.032 | 0.157 | Cc1nc(-c2ccc3c(c2)OCO3)c2c(-c3ccnc(N)n3)c[nH]c2n1 [Example 209, 4-[4-(1,3-benzodioxol-5-yl)-2-methyl-7H-pyrrolo[2,3-d]pyrimidin-5-yl]pyrimidin-2-amine]
27 |  |  | 0.015 | 0.0883 | Cc1nc(-c2ccc3c(c2)OC(F)(F)O3)c2c(-c3ccnc(N)c3)c[nH]c2n1 [Example 164, 4-[4-(2,2-difluoro-1,3-benzodioxol-5-yl)-2-methyl-7H-pyrrolo[2,3-d]pyrimidin-5-yl]pyridin-2-amine]
28 | 0.0107 |  | 0.014 | 0.0408 | Cc1nc(NCc2ccc(F)cc2F)c2c(-c3ccnc(N)c3)c[nH]c2n1 [Example 63, 5-(2-aminopyridin-4-yl)-N-(2,4-difluorobenzyl)-2-methyl-7H-pyrrolo[2,3-d]pyrimidin-4-amine]
29 | 0.2 |  | 0.496 | 0.686 | Cc1cc(-c2c[nH]c3nc(C)nc(NCc4ccsc4)c23)ccn1 [Example 45, 2-methyl-5-(2-methylpyridin-4-yl)-N-(thiophen-3-ylmethyl)-7H-pyrrolo[2,3-d]pyrimidin-4-amine]
30 | 0.0143 |  | 0.037 |  | Cc1nc(NCc2ccc(F)cc2C(F)(F)F)c2c(-c3ccnc(N)c3)c[nH]c2n1 [Example 75, 5-(2-ammopyridin-4-yl)-N-[4-fluoro-2-(trifluoromethyl)benzyl]-2-methyl-7H-pyrrolo[2,3-d]pyrimidin-4-amine]
31 |  |  | 0.01 | 0.0041 | Cc1nc(NCc2cccc3c2OCO3)c2c(-c3ccnc(N)n3)c[nH]c2n1 [Example 208, 5-(2-aminopyrimidin-4-yl)-N-(1,3-benzodioxol-4-ylmethyl)-2-methyl-7H-pyrrolo[2,3-d]pyrimidin-4-amine]
32 |  |  | 0.008 | 0.0442 | Cc1cc(-c2ccc3c(c2)OCO3)c2c(-c3ccnc(N)c3)c[nH]c2n1 [Example 222, 4-[4-(1,3-benzodioxol-5-yl)-6-methyl-1H-pyrrolo[2,3-b]pyridin-3-yl]pyridin-2-amine]
33 |  |  | 0.008 | 0.0071 | Cc1nc(-c2ccc3c(c2)CCCC3)c2c(-c3ccnc(N)c3)c[nH]c2n1 [Example 195]
34 |  |  | 0.016 | 0.132 | C#Cc1cc(-c2ccc3c(c2)OCO3)c2c(-c3cc(N)nc(N)c3)c[nH]c2n1 [Example 221, 4-[4-(1,3-benzodioxol-5-yl)-6-ethynyl-1H-pyrrolo[2,3-b]pyridin-3-yl]pyridine-2,6-diamine]
35 | 0.0655 |  | 0.15 |  | N#Cc1nc(-c2ccc3c(c2)OCO3)c2c(-c3cc(N)nc(N)c3)c[nH]c2n1 [Example 158, 4-(1,3-benzodioxol-5-yl)-5-(2,6-diaminopyridin-4-yl)-7H-pyrrolo[2,3-d]pyrimidine-2-carbonitrile]
36 |  |  | 0.034 | 0.193 | C#Cc1cc(-c2ccc3c(c2)OCO3)c2c(-c3ccnc(N)c3)c[nH]c2n1 [Example 220, 4-[4-(1,3-benzodioxol-5-yl)-6-ethynyl-1H-pyrrolo[2,3-b]pyridin-3-yl]pyridin-2-amine]
